According to PubChem BioAssay AID248 (DTP/NCI, 2004):
Where “and” joins values, the source holds several entries; their conditions need not be identical. Equal entries are not always repeated. Inconclusive results and toxic doses are left out. No stated cut-off is given here; in the data, active means T/C of 150% or more; inactive means T/C below 125%.

System: L1210 leukemia ip in BDF1 mice, survival T/C
Assay: NCI In Vivo Anticancer Drug Screen. Data for tumor model L1210 Leukemia (intraperitoneal) in B6D2F1 (BDF1) mice
Conditions: endpoint: mean survival time, higher = longer survival
Procedure, shortened: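 In this screen, tumor-bearing mice given compound are compared to those given vehicle, and their survival values are reported as a treated-to-control quotient.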

[1] = dose: 100.0 mg/kg/injection, schedule: Q01DX009 (ip), vehicle: other
[2] = dose: 100.0 mg/kg/injection, schedule: Q04DX003 (ip), vehicle: other
[3] = dose: 200.0 mg/kg/injection, schedule: Q01DX009 (ip), vehicle: other
[4] = dose: 200.0 mg/kg/injection, schedule: Q04DX003 (ip), vehicle: other
[5] = dose: 400.0 mg/kg/injection, schedule: Q01DX009 (ip), vehicle: other
[6] = dose: 400.0 mg/kg/injection, schedule: Q04DX003 (ip), vehicle: other
[7] = dose: 100.0 mg/kg/injection, schedule: Q04DX003 (ip), vehicle: saline with Tween-80
[8] = dose: 200.0 mg/kg/injection, schedule: Q04DX003 (ip), vehicle: saline with Tween-80
[9] = dose: 400.0 mg/kg/injection, schedule: Q04DX003 (ip), vehicle: saline with Tween-80
[10] = dose: 100.0 mg/kg/injection, schedule: Q04DX002 (ip), vehicle: Klucel (hydroxypropylcellulose) (HPC)
[11] = dose: 200.0 mg/kg/injection, schedule: Q04DX002 (ip), vehicle: Klucel (hydroxypropylcellulose) (HPC)
[12] = dose: 400.0 mg/kg/injection, schedule: Q04DX002 (ip), vehicle: Klucel (hydroxypropylcellulose) (HPC)
[13] = dose: 50.0 mg/kg/injection, schedule: Q01DX009 (ip), vehicle: saline with Tween-80

Measured: T/C

C/C(=C\c1ccccc1)[N+](=O)[O-]
inactive: dose: 1.0 mg/kg/injection, schedule: Q04DX003 (ip), vehicle: Klucel (hydroxypropylcellulose) (HPC) 106 % of control | dose: 4.0 mg/kg/injection, schedule: Q01DX009 (ip), vehicle: Klucel (hydroxypropylcellulose) (HPC) 104 % of control | dose: 8.0 mg/kg/injection, schedule: Q01DX009 (ip), vehicle: Klucel (hydroxypropylcellulose) (HPC) 89 % of control | dose: 12.5 mg/kg/injection, schedule: Q01DX009 (ip), vehicle: Klucel (hydroxypropylcellulose) (HPC) 98 % of control | dose: 12.5 mg/kg/injection, schedule: Q04DX003 (ip), vehicle: Klucel (hydroxypropylcellulose) (HPC) 101 % of control | dose: 16.0 mg/kg/injection, schedule: Q01DX009 (ip), vehicle: Klucel (hydroxypropylcellulose) (HPC) 107 % of control | dose: 20.0 mg/kg/injection, schedule: Q04DX003 (ip), vehicle: Klucel (hydroxypropylcellulose) (HPC) 101 % of control | dose: 25.0 mg/kg/injection, schedule: Q01DX009 (ip), vehicle: Klucel (hydroxypropylcellulose) (HPC) 102 % of control and 104 % of control | dose: 25.0 mg/kg/injection, schedule: Q04DX003 (ip), vehicle: Klucel (hydroxypropylcellulose) (HPC) 116 % of control | dose: 32.0 mg/kg/injection, schedule: Q01DX009 (ip), vehicle: Klucel (hydroxypropylcellulose) (HPC) 100 % of control | dose: 40.0 mg/kg/injection, schedule: Q04DX003 (ip), vehicle: Klucel (hydroxypropylcellulose) (HPC) 95 % of control | dose: 50.0 mg/kg/injection, schedule: Q01DX009 (ip), vehicle: Klucel (hydroxypropylcellulose) (HPC) 101 % of control and 113 % of control | dose: 50.0 mg/kg/injection, schedule: Q04DX003 (ip), vehicle: Klucel (hydroxypropylcellulose) (HPC) 106 % of control | dose: 64.0 mg/kg/injection, schedule: Q01DX009 (ip), vehicle: Klucel (hydroxypropylcellulose) (HPC) 110 % of control | dose: 80.0 mg/kg/injection, schedule: Q04DX003 (ip), vehicle: Klucel (hydroxypropylcellulose) (HPC) 100 % of control

C=C(Cl)CNC(=O)c1ccc([N+](=O)[O-])cc1
inactive: dose: 100.0 mg/kg/injection, schedule: Q04DX003 (ip), vehicle: Klucel (hydroxypropylcellulose) (HPC) 98 % of control | dose: 200.0 mg/kg/injection, schedule: Q04DX003 (ip), vehicle: Klucel (hydroxypropylcellulose) (HPC) 104 % of control

CCOC(=O)CC(COC)C(C(=O)OCC)C(=O)OCC (stereo not given)
inactive: [1] 100 % of control | [2] 88 % of control | [3] 100 % of control | [4] 94 % of control | [5] 98 % of control | [6] 105 % of control

CC(=O)C1=CCC2C3CC(C)=C4CC(O)CCC4(C)C3CCC12C (stereo not given)
inactive: [7] 94 % of control | [8] 92 % of control | [9] 90 % of control

N/C(=N\c1nc(-c2ccccc2)cc(-c2ccccc2O)n1)N1CCOCC1
inactive: [10] 98 % of control | [11] 98 % of control | [12] 95 % of control

CC(C)c1oc2ccccc2c1C(=O)c1ccncc1
inactive: dose: 75.0 mg/kg/injection, schedule: Q04DX003 (ip), vehicle: saline with Tween-80 97 % of control | dose: 150.0 mg/kg/injection, schedule: Q04DX003 (ip), vehicle: saline with Tween-80 101 % of control | dose: 300.0 mg/kg/injection, schedule: Q04DX003 (ip), vehicle: saline with Tween-80 101 % of control

Cc1ccc2c(C)c3c(ccc4ccccc43)c[n+]2c1
inactive: dose: 0.36 mg/kg/injection, schedule: Q01DX015 (ip), vehicle: saline 110 % of control | dose: 0.55 mg/kg/injection, schedule: Q01DX015 (ip), vehicle: saline 104 % of control | dose: 0.83 mg/kg/injection, schedule: Q01DX015 (ip), vehicle: saline 110 % of control | dose: 1.25 mg/kg/injection, schedule: Q01DX015 (ip), vehicle: saline 105 % of control and 112 % of control | dose: 2.5 mg/kg/injection, schedule: Q01DX015 (ip), vehicle: saline 103 % of control | dose: 2.5 mg/kg/injection, schedule: Q04DX003 (ip), vehicle: saline 101 % of control | dose: 5.0 mg/kg/injection, schedule: Q01DX001 (ip), vehicle: saline 94 % of control | dose: 5.0 mg/kg/injection, schedule: Q01DX015 (ip), vehicle: saline 111 % of control | dose: 5.0 mg/kg/injection, schedule: Q04DX003 (ip), vehicle: saline 95 % of control | dose: 10.0 mg/kg/injection, schedule: Q01DX001 (ip), vehicle: saline 96 % of control | dose: 10.0 mg/kg/injection, schedule: Q01DX015 (ip), vehicle: saline 110 % of control and 117 % of control | dose: 10.0 mg/kg/injection, schedule: Q04DX003 (ip), vehicle: saline 111 % of control | dose: 20.0 mg/kg/injection, schedule: Q01DX001 (ip), vehicle: saline 102 % of control | dose: 20.0 mg/kg/injection, schedule: Q04DX003 (ip), vehicle: saline 113 % of control

N#C/C(=C\c1ccncc1)c1csc2ccccc12
inactive: [7] 101 % of control | [8] 100 % of control | [9] 94 % of control

COc1ccc(/C=N/NC(=O)CNC(=O)c2ccc(Cl)cc2Cl)cc1OC
inactive: [13] 91 % of control | dose: 100.0 mg/kg/injection, schedule: Q01DX009 (ip), vehicle: saline with Tween-80 86 % of control | dose: 200.0 mg/kg/injection, schedule: Q01DX009 (ip), vehicle: saline with Tween-80 86 % of control

O=C(Nc1ccc(Cl)cc1)Oc1ccc(Nc2ccccc2)cc1
inactive: [10] 114 % of control | [11] 111 % of control | [12] 111 % of control

CC(=O)OC1=C(C)CCC1=O
inactive: dose: 100.0 mg/kg/injection, schedule: Q01DX001 (ip), vehicle: saline 89 % of control | dose: 200.0 mg/kg/injection, schedule: Q01DX001 (ip), vehicle: saline 95 % of control | dose: 400.0 mg/kg/injection, schedule: Q01DX001 (ip), vehicle: saline 89 % of control

CCCCCCCN(CCCCCCC)C(=O)N(C)C
inactive: dose: 100.0 mg/kg/injection, schedule: Q04DX002 (sc), vehicle: olive oil, sesame oil, peanut oil 104 % of control | dose: 200.0 mg/kg/injection, schedule: Q04DX002 (sc), vehicle: olive oil, sesame oil, peanut oil 107 % of control | dose: 400.0 mg/kg/injection, schedule: Q04DX002 (sc), vehicle: olive oil, sesame oil, peanut oil 114 % of control

C/C=C/c1cc(OC)cc(C2(O)OC(=O)c3c(OC)cccc32)c1OC (stereo not given)
inactive: [7] 105 % of control | [8] 94 % of control | [9] 100 % of control

Cc1cnc(/N=C(\N)N2CCOCC2)nc1-c1ccccc1O
inactive: [10] 88 % of control | [11] 88 % of control

CCOC(=O)C(OCc1ccccc1)(C(=O)NCCc1ccc(OC)c(OC)c1)C(C)C (stereo not given)
inactive: dose: 25.0 mg/kg/injection, schedule: Q01DX009 (ip), vehicle: other 108 % of control | dose: 50.0 mg/kg/injection, schedule: Q01DX009 (ip), vehicle: other 108 % of control | [1] 103 % of control | [3] 99 % of control | [5] 91 % of control

CC(=O)Nc1ccc(/C=C(\C#N)c2cccc3ccccc23)cc1
inactive: dose: 100.0 mg/kg/injection, schedule: Q01DX009 (ip), vehicle: Klucel (hydroxypropylcellulose) (HPC) 90 % of control | dose: 200.0 mg/kg/injection, schedule: Q01DX009 (ip), vehicle: Klucel (hydroxypropylcellulose) (HPC) 87 % of control | dose: 400.0 mg/kg/injection, schedule: Q01DX009 (ip), vehicle: Klucel (hydroxypropylcellulose) (HPC) 88 % of control

COc1ccc(/C=N/NC(=O)c2ccco2)cc1OC
inactive: dose: 100.0 mg/kg/injection, schedule: Q01DX001 (ip), vehicle: other 93 % of control | dose: 400.0 mg/kg/injection, schedule: Q01DX001 (ip), vehicle: other 96 % of control

Clc1ccc2[nH]ncc2c1
inactive: [10] 88 % of control | [11] 98 % of control | [12] 98 % of control

CCCCn1nnc2c(NN)nc(N)nc21
inactive: dose: 25.0 mg/kg/injection, schedule: Q01DX009 (ip), vehicle: saline with Tween-80 102 % of control | dose: 25.0 mg/kg/injection, schedule: Q04DX003 (ip), vehicle: saline with Tween-80 100 % of control | [13] 101 % of control | dose: 50.0 mg/kg/injection, schedule: Q04DX003 (ip), vehicle: saline with Tween-80 94 % of control | [7] 100 % of control

NNc1ccc(-c2ccc(NN)cc2)cc1
inactive: [8] 95 % of control | [9] 98 % of control

CCCCCCCCCCCCCCCC/C(C)=C\C(=O)OC
inactive: [2] 93 % of control | [4] 93 % of control | [6] 93 % of control

CCOC(=O)CCc1ccc(N=NN(C)C)cc1
inactive: dose: 125.0 mg/kg/injection, schedule: Q01DX009 (ip), vehicle: saline 115 % of control
